Measured values published in US20210052593A1, “Compositions and Methods for the Treatment of Macrophage Activation Syndrome” (Children's Hospital Medical Center, priority 2018, published 2021).

How the values were obtained:
SJIA patients = conditions: observed MAS rates in phase III trials, even if underlying SJIA well controlled; cited from earlier work
[1] = treatment of MAS; cited from earlier work
IFN-induced signature = conditions: clinical trial of anakinra in SJIA, Quartier et al; vs placebo, regardless of response status; cited from earlier work
MAS patients = conditions: cited from earlier work
[2] = tested on: perforin-deficient mice infected with murine CMV; conditions: cited from earlier work
[3] = tested on: SJIA patient with recurrent MAS; test: Use of Tadekinig-alfa in an SJIA patient with recurrent MAS; assay type: in vivo, human; conditions: one SJIA patient with recurrent MAS

canakinumab
protection against MAS (SJIA patients): do not provide protection against MAS

COc1cc([C@@H]2c3cc4c(cc3[C@@H](O[C@@H]3O[C@@H]5CO[C@@H](C)O[C@H]5[C@H](O)[C@H]3O)[C@H]3COC(=O)[C@H]23)OCO4)cc(OC)c1O [etoposide]
associated toxicity / side effects [1]: Life threatening bone marrow suppression, short-term, and hematologic malignancies later in life

tocilizumab
protection against MAS (SJIA patients): do not provide protection against MAS

anakinra
strength of the IFN-induced signature (IFN-induced signature): sustained increase | treatment of MAS (MAS patients; literature reports): successful treatment of MAS

rilonacept
occurrence of MAS in treated patients (MAS patients; literature report): MAS has been seen

B1: synthetic IL-18BP: synthetic IL-18 binding protein administered to mice (protein, UniProt Q9Z0M9 29-193, looked up)
Interleukin-18-binding protein: TSAPQTTATVLTGSSKDPCSSWSPAVPTKQYPALDVIWPEKEVPLNGTLTLSCTACSRFPYFSILYWLGNGSFIEHLPGRLKEGHTSREHRNTSTWLHRALVLEELSPTLRSTNFSCLFVDPGQVAQYHIILAQLWDGLKTAPSPSQETLSSHSPVSRSAGPGVA
liver damage [2]: ameliorated liver damage | overall survival [2]: no change | production of proinflammatory cytokines [2]: remained high

B2: Tadekinig-alfa (protein, UniProt O95998 31-194, looked up)
Interleukin-18-binding protein: TPVSQTTTAATASVRSTKDPCPSQPPVFPAAKQCPALEVTWPEVEVPLNGTLSLSCVACSRFPNFSILYWLGNGSFIEHLPGRLWEGSTSRERGSTGTQLCKALVLEQLTPALHSTNFSCVLVDPEQVVQRHVVLAQLWAGLRATLPPTQEALPSSHSSPQQQG
notes: recombinant IL18BP
frequency of MAS episodes [3]: remained unchanged | severity of MAS episodes [3]: reduced the severity of MAS episodes
